Test results as given in US20160113895A1, “Novel Use of Adapalene in Treating Esophageal Cancer and Gastrointestinal Stromal Tumor” (Biodelight Biotech Inc., priority 2013, published 2016).

Experiments:
A549 implanted tumors [1] = experiment: Subcutaneous A549 xenograft model, groups 2a-2c, o.p.; settings: for Tumor inhibition rate (%): A549, o.p. once daily, Tarceva 20 mpk; for Tumor inhibition rate (%) / Body weight change (%): NSL-8 70 mpk; for Body weight change (%): A549 tumor-bearing mice, Tarceva 20 mpk o.p.
Protocol: The antitumor efficacy of the drug lead nsl-8 searched was studied using the subcutaneous xenografted A549 and HCC827 lung cancer tumor models in vivo. […] Mice were maintained in individual ventilated cages (IVC, max. 4 mice/cage) at constant temperature and humidity. Animal weights were determined three times (Monday, Wednesday and Friday) for groups 1a and 1b or two times (Monday and Thursday) for groups 2a-2c and 3a-3c animals. Animal behaviour was monitored daily.
On day 0, either 2×10^6 A549 or 2×10^6 HCC827 tumor cells in 100 μL PBS were implanted into the subcutaneous space of the left flank of all corresponding BALB/c nude and SCID mice, respectively. In the following, tumor sizes were determined by caliper measurement. Tumor sizes were calculated according to the formula W^2×Lg/2 (Lg=length and W=the perpendicular width of the tumor, L>W). On day 48 or 30, after mean tumor volumes had reached approx. 100 mm^3, the corresponding tumor-bearing animals were randomized into 2 groups of 8 (A549 model: groups 1a and 1b) or 10 animals (A549 model: groups 2a and 2b) according to tumor sizes. On day 24 or 28, after mean tumor volumes had reached approx. 100 mm^3, the corresponding tumor-bearing animals were randomized into 2 groups of 10 animals (HCC827 model: groups 3a and 3b) according to tumor sizes. […] The percentage of tumor growth inhibition (TGI) was calculated using the following formula: […]
where T and C represent the mean tumor volume of the treatment and the control group, respectively.
The solution was aliquoted into several 15 ml sterile centrifuge tubes in 650 μl quantity per tube and then stored frozen at −80° C. until use. […] Animals of group 1b received 40 mg/kg nsl-8 dosage solution once daily through i.p. route on days 48-52 and 62-66, while those of groups 2b and 3b received 70 mg/kg nsl-8 dosage solution once daily through o.p. route on days 1-14 (group 2b) and days 1-14 (group 3b), respectively (Table 4).
Groups 1a and 1b (A549 model) were terminated on day 69, while groups 2a-2c (A549 model) and 3a-3c (HCC827 model) were terminated on day 15. At necropsy, animals were killed by cervical dislocation. Primary tumor weights and volumes were determined. The tumor volume and weight were analysed using descriptive data analysis (Mean, SEM, Median). Statistical analysis of efficacy data was performed using the unpaired t-test. All the data analyses were performed using GraphPad Prism 5 from GraphPad Software, Inc., San Diego, USA.
The serum level of blood urea nitrogen (BUN) was measured for assessing the renal function while those of alanine aminotransferase (ALT) and aspartate aminotransferase (AST) were measured using Ektachem DT system (Johnson & Johnson Clinical Diagnostics) for assessing the liver function. The EDTA treated anticoagulated blood samples were also collected for making a complete peripheral blood count by using a Hematology Analyzer (Sysmex, XT-1800i).
For this study, 0.161 ml nsl-8 stock solution made in DMSO was mixed with 1.339 ml 0.9% w/v saline so that the volume of a final dosage solution prepared to feed an animal was 1.5 ml and containing 10% DMSO. Therefore, both administration routes and vehicles used in treating groups 2a-2b and 3a-3b animals were quite different from that used in treating groups 1a-1b animals.

H1299 = experiment: 3D cell proliferation assay (soft agar), H1299; assay type: cell-based, human; settings: Homo sapiens, NCI-H1299, 3D soft agar
Protocol: Drug nsl-8 was further subjected to a 3D cell proliferation assay for assessing its potential in inhibiting the growth of NSCLC tumors. The same four NSCLC cell lines used in 2D proliferation assays were grown in soft agar and the drug was added after the agar has solidified. The drug added cells were then incubated several days until colonies have formed in the solvent control. Subsequently, Alamar Blue which was a cell viability reagent was added and the corresponding fluorescence released was measured as an indirect quantification of colony growth in soft agar.
For each cell line, some 96 well culture plates were prepared. 100 μL of the soft agar bottom layer (0.6% final concentration in complete medium) was poured and left to solidify. 50 μL of the soft agar top layer (0.4% final concentration) containing the corresponding cells and cell number were then added on top, solidified and such 96 well plates were incubated overnight at 37° C. in 10% CO2. Next day, drugs were added at indicated final concentrations into the inner wells of the plate. Subsequently, the assays were incubated in cell culture incubators for the indicated period of time. Finally, the assays were developed using Alamar Blue and upon 3-5 h of incubation at 37 ° C. fluorescence intensity was determined (excitation: 560 nm, emission: 590 nm). […]

A549 implanted tumors [2] = experiment: Subcutaneous A549 xenograft model, groups 1a/1b, i.p.; assay type: in vivo, BALB/c nude mice; settings: 40 mg/kg i.p. once daily, after treatment days 48-52
Protocol: All experiments were performed using either 5-6 weeks old female BALB/c nude mice (approximate weight: 16-20 g) (A549) or female SCID mice (approximate weight: 16-20 g) (A549 and HCC827). […] Animal behaviour was monitored daily.
At necropsy, animals were killed by cervical dislocation. Primary tumor weights and volumes were determined.
The treatment for groups 1a and 1b (A549 model) animals with drug nsl-8 was started on day 48 and terminated on day 69. The animals were not consecutively treated with nsl-8 during the entire treatment period of 48-68 days. Instead, there was an interruption between treatment days 48-52 and 62-66 (FIG. 4) due to an apparent weight loss observed in the treated animals, an ethical reason which caused the treatment to be suspended. […] However, the animals were able to recover from such a weight loss after several days of cessation of treatment (FIG. 5). After weight loss of treated animals was recovered, a second treatment cycle from days 62-66 was resumed (FIG. 5). This second treatment cycle caused weight loss again (FIG. 5). However, the study groups 1a and 1b were both terminated on day 69 due to the presence of tumor ulceration in some animals. Note that weight loss in animals treated with vehicle was also observed in the final stage of treatment (FIG. 5). We speculated that such a loss might be caused by the presence of 10% DMSO in the prepared vehicle. […]

`COc1ccc(-c2ccc3cc(C(=O)O)ccc3c2)cc1C12CC3CC(CC(C3)C1)C2` [nsl-8, 6-[3-(1-adamantyl)-4-methoxyphenyl]-2-naphthalenecarboxylic acid] was tested, and the “cell counts of white blood cell, red blood cell, or platelet versus vehicle” value (A549 implanted tumors [1]; A549 model, peripheral blood at end-point, nsl-8 70 mg/kg, Tarceva 20 mg/kg o.p.) was “no significant difference”, the “serum levels of BUN, ALT, and AST among treatment groups” value (A549 implanted tumors [1]; A549 model, upon completion of the experiments) was “no significant difference” and the “Tumor inhibition rate (%)” value (A549 implanted tumors [1]; Day 0) was 0%. For the same molecule, the “Body weight change (%)” value (A549 implanted tumors [1]; Day 0) was 0%, the “Tumor inhibition rate (%)” value (A549 implanted tumors [1]; Day 3) was 7.1% and the “Body weight change (%)” value (A549 implanted tumors [1]; Day 3) was −1.9%. The “Tumor inhibition rate (%)” value (A549 implanted tumors [1]; Day 7) was 12.0%, the “Body weight change (%)” value (A549 implanted tumors [1]; Day 7) was −1.3% and the “Tumor inhibition rate (%)” value (A549 implanted tumors [1]; Day 10) was 17.8%. For the same molecule, the “Body weight change (%)” value (A549 implanted tumors [1]; Day 10) was −2.6%, the “Tumor inhibition rate (%)” value (A549 implanted tumors [1]; Day 14) was 19.1% and the “Body weight change (%)” value (A549 implanted tumors [1]; Day 14) was −2.0%. The “decline of body weight upon completion of the experiments” value (A549 implanted tumors [1]; group 2b, 70 mg/kg daily o.p.) was 2.0%, the IC50 (H1299) was 13 µM and the “weight loss in animals” value (A549 implanted tumors [2]) was 16%.
